Legend:
Parameters in all cases: key: 0: no positive effect; 10: slight positive effect; 20: clear positive effect; 30: strong positive effect
[1] = system: Triticum aestivum (TRZAS); test: In vivo analyses Part B: drought stress, appearance vs stressed control plants in categories (TRZAS); conditions: spray application 250 g/ha, category vs stressed control plants, 2-3 pots
Experimental: Seeds of monocotyledonous and dicotyledonous crop plants were sown in sandy loam in plastic pots, covered with soil or sand and cultivated in a greenhouse under good growth conditions. The test plants were treated at the early leaf stage (BBCH10-BBCH13). To assure uniform water supply before commencement of stress, the potted plants were supplied with water by dam irrigation prior to substance application. The inventive compounds, formulated in the form of wettable powders (WP), were sprayed onto the green parts of the plants as an aqueous suspension at an equivalent water application rate of 600 I/ha with addition of 0.2% wetting agent (e.g. agrotin). Substance application was followed immediately by stress treatment of the plants. Drought stress was induced by gradual drying out under the following conditions: “Day”: 14 hours with illumination at 26-30° C. “Night”: 10 hours without illumination at 18-20° C. The duration of the respective stress phases was guided mainly by the condition of the stressed control plants. It was ended (by re-irrigating and transfer to a greenhouse with good growth conditions) as soon as irreversible damage was observed on the stressed control plants. The end of the stress phase was followed by an about 4-7-day recovery phase, during which the plants were once again kept under good growth conditions in a greenhouse. The duration of the recovery phase was guided mainly by when the trial plants had attained a state which enabled visual scoring of potential effects, and was therefore variable. Once this juncture had been reached, the appearance of the plants treated with test substances was recorded in comparison to the stressed control plants by the following categories: [table] In order to rule out any influence on the effects observed by any fungicidal or insecticidal action of the test compounds, it was additionally ensured that the tests proceeded without fungal infection or insect infestation. For each substance and dosage, 2-3 pots were treated and evaluated. TRZAS=Triticum aestivum

Brassica napus (BRSNS) = test: In vivo analyses Part B: drought stress, appearance vs stressed control plants in categories (BRSNS); conditions: spray application 250 g/ha, category vs stressed control plants, 2-3 pots
Experimental: Seeds of monocotyledonous and dicotyledonous crop plants were sown in sandy loam in plastic pots, covered with soil or sand and cultivated in a greenhouse under good growth conditions. The test plants were treated at the early leaf stage (BBCH10-BBCH13). To assure uniform water supply before commencement of stress, the potted plants were supplied with water by dam irrigation prior to substance application. The inventive compounds, formulated in the form of wettable powders (WP), were sprayed onto the green parts of the plants as an aqueous suspension at an equivalent water application rate of 600 I/ha with addition of 0.2% wetting agent (e.g. agrotin). Substance application was followed immediately by stress treatment of the plants. Drought stress was induced by gradual drying out under the following conditions: “Day”: 14 hours with illumination at 26-30° C. “Night”: 10 hours without illumination at 18-20° C. The duration of the respective stress phases was guided mainly by the condition of the stressed control plants. It was ended (by re-irrigating and transfer to a greenhouse with good growth conditions) as soon as irreversible damage was observed on the stressed control plants. The end of the stress phase was followed by an about 4-7-day recovery phase, during which the plants were once again kept under good growth conditions in a greenhouse. The duration of the recovery phase was guided mainly by when the trial plants had attained a state which enabled visual scoring of potential effects, and was therefore variable. Once this juncture had been reached, the appearance of the plants treated with test substances was recorded in comparison to the stressed control plants by the following categories: [table] In order to rule out any influence on the effects observed by any fungicidal or insecticidal action of the test compounds, it was additionally ensured that the tests proceeded without fungal infection or insect infestation. For each substance and dosage, 2-3 pots were treated and evaluated. BRSNS=Brassica napus

Zea mays (ZEAMX) = test: In vivo analyses Part B: drought stress, appearance vs stressed control plants in categories (ZEAMX); conditions: spray application 25 g/ha, category vs stressed control plants, 2-3 pots
Experimental: Seeds of monocotyledonous and dicotyledonous crop plants were sown in sandy loam in plastic pots, covered with soil or sand and cultivated in a greenhouse under good growth conditions. The test plants were treated at the early leaf stage (BBCH10-BBCH13). To assure uniform water supply before commencement of stress, the potted plants were supplied with water by dam irrigation prior to substance application. The inventive compounds, formulated in the form of wettable powders (WP), were sprayed onto the green parts of the plants as an aqueous suspension at an equivalent water application rate of 600 I/ha with addition of 0.2% wetting agent (e.g. agrotin). Substance application was followed immediately by stress treatment of the plants. Drought stress was induced by gradual drying out under the following conditions: “Day”: 14 hours with illumination at 26-30° C. “Night”: 10 hours without illumination at 18-20° C. The duration of the respective stress phases was guided mainly by the condition of the stressed control plants. It was ended (by re-irrigating and transfer to a greenhouse with good growth conditions) as soon as irreversible damage was observed on the stressed control plants. The end of the stress phase was followed by an about 4-7-day recovery phase, during which the plants were once again kept under good growth conditions in a greenhouse. The duration of the recovery phase was guided mainly by when the trial plants had attained a state which enabled visual scoring of potential effects, and was therefore variable. Once this juncture had been reached, the appearance of the plants treated with test substances was recorded in comparison to the stressed control plants by the following categories: [table] In order to rule out any influence on the effects observed by any fungicidal or insecticidal action of the test compounds, it was additionally ensured that the tests proceeded without fungal infection or insect infestation. For each substance and dosage, 2-3 pots were treated and evaluated. ZEAMX=Zea mays

Compound | Effect (TRZAS) [1] | Effect (BRSNS) (Brassica napus (BRSNS)) | Effect (ZEAMX) (Zea mays (ZEAMX))
CCCOC(=O)/C=C(\C#CC(O)(C(C)C)C1(C#N)CC1)CC (stereo not shown) [I.1-605] | 20 | 20 | 
CCCOC(=O)/C=C(\C#CC(O)(c1ccccc1)C1(C#N)CC1)CC (stereo not shown) [I.1-609] | 10 | 10-20 | 20
CCOC(=O)/C=C(\C#CC(O)(C(C)C)C1(C#N)CC1)CC (stereo not shown) [I.1-103] | 10-20 | 30 | 10-20
CC/C(C#CC(O)(c1ccccc1)C1(C#N)CC1)=C/C(=O)OC (stereo not shown) [I.1-202] | 20 | 20 | 10-20
COC(=O)/C=C(/C)C#CC(O)(C(C)C)C1(C#N)CC1 (stereo not shown) [I.1-135] | 30 | 30 | 

Reference: patent US10322995B2, “Substituted cyano cycloalkyl penta-2,4-dienes, cyano cycloalkyl pent-2-en-4-ynes, cyano heterocyclyl penta-2,4-dienes and cyano heterocyclyl pent-2-en-4-ynes as active substances against abiotic plant stress” (BAYER CROPSCIENCE AKTIENGESELLSCHAFT, priority 2014, dated 2019)
